Experimental data as given in patent US12539292B2, “BRM targeting compounds and associated methods of use” (Arvinas Operations, Inc., priority 2018, dated 2026).
Read-outs that look alike come from different tables or passages of the source.

Target: T1, BRM (Homo sapiens, UniProt P51531)
T1 construct: In-Cell Western Screen of BRM Degradation in SW1573 Cells; endogenous in cells; host or cells: SW1573
Assay: In-cell Western screen of BRM degradation in SW1573 cells (Dmax and DC50)
Type: cell-based
Procedure, shortened: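 After adhering overnight, cells received compound for 18-20 hours. They were then washed in cold DPBS, fixed with 4% PFA for 20 min and permeabilized for 30 min. Blocking and fluorescent secondary staining followed before imaging.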

[1] = BRM degradation, SW1573 cells, Table 2D, read-out: **Dmax (%) (% degraded)
[2] = BRM degradation, SW1573 cells, Table 2D, read-out: *DC50
[3] = BRM degradation, SW1573 cells, read-out: DC50
[4] = degradation of BRM, read-out: BRM DC50
[5] = SW1573, % degraded, when tested at the top concentration of between 0.3 and 10 μM, read-out: BRM Dmax (%)
[6] = target protein degradation, read-out: BRM DC50

T1 sequence (P51531 whole entry): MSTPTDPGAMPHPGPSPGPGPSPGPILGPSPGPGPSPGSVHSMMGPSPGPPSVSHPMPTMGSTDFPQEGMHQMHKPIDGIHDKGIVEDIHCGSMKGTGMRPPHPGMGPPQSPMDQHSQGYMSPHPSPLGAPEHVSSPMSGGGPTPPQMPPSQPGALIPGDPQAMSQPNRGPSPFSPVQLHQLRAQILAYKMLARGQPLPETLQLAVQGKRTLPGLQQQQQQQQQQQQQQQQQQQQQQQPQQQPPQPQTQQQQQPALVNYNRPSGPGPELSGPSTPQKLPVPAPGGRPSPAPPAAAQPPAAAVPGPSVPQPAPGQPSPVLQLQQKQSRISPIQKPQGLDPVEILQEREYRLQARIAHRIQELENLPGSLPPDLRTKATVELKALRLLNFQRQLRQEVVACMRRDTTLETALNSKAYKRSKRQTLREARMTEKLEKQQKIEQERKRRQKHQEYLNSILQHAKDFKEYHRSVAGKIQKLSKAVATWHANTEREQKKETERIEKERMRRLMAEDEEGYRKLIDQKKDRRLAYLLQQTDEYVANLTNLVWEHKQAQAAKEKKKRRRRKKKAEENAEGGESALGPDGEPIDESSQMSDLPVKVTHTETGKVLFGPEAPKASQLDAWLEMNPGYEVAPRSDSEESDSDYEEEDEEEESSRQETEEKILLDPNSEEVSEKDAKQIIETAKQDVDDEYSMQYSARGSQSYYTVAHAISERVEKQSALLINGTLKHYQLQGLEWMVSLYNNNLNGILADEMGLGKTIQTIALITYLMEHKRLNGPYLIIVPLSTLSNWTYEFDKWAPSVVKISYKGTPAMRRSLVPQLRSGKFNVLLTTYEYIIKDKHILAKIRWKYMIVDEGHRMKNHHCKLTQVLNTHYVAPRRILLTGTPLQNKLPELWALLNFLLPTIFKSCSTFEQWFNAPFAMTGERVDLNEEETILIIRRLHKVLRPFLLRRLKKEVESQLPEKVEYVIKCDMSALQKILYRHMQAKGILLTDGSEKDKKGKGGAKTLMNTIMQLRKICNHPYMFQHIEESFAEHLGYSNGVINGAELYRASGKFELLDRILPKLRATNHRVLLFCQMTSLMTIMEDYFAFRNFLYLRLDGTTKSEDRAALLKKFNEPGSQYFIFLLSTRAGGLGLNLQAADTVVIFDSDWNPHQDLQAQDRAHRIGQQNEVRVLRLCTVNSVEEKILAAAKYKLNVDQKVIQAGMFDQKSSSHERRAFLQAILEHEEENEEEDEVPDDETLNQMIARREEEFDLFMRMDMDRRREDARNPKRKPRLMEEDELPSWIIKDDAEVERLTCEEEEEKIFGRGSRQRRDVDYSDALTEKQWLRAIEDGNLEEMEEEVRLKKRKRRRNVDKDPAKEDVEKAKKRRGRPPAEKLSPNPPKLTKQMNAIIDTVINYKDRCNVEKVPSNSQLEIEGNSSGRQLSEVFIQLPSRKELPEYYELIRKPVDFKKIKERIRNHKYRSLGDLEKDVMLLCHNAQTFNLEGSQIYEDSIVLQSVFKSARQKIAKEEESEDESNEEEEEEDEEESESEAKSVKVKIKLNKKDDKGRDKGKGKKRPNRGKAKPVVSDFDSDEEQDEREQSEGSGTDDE

**Q.** With `Cc1ncsc1-c1ccc([C@H](C)NC(=O)[C@@H]2C[C@@H](O)CN2C(=O)[C@@H](c2cc(OCCN3CC[C@@H](OCCc4cc(N5C6CCC5CN(c5cc(-c7ccccc7O)nnc5N)C6)ccn4)C[C@@H]3C)no2)C(C)C)cc1` (racemic) [compound 567, (2S,4R)-1-((2R)-2-(3-(2-((2S,4R)-4-(2-(4-(3-(3-amino-6-(2-hydroxyphenyl)pyridazin-4-yl)-3,8-diazabicyclo[3.2.1]octan-8-yl)pyridin-2-yl)ethoxy)-2-methylpiperidin-1-yl)ethoxy)isoxazol-5-yl)-3-methylbutanoyl)-4-hydroxy-N-((S)-1-(4-(4-methylthiazol-5-yl)phenyl)ethyl) pyrrolidine-2-carboxamide] as the molecule, how does the Dmax [1] read?
**A.** The Dmax was over 75%.

**Q.** And the DC50 [2]?
**A.** Its DC50 is 2.5 to 10 nM.

**Q.** Which DC50 [2] does the source give for `Cc1ncsc1-c1cc(F)c([C@H](C)NC(=O)[C@@H]2C[C@@H](O)CN2C(=O)[C@H](c2cc(OCCN3CCC(O[C@H]4C[C@H](Oc5cc(N6C7CCC6CN(c6cc(-c8ccccc8O)nnc6N)C7)ccn5)C4)CC3)no2)C(C)C)cn1` [compound 540, (2S,4R)-1-((2S)-2-(3-(2-(4-((1r,3S)-3-((4-(3-(3-amino-6-(2-hydroxyphenyl)pyridazin-4-yl)-3,8-diazabicyclo[3.2.1]octan-8-yl)pyridin-2-yl)oxy)cyclobutoxy)piperidin-1-yl)ethoxy)isoxazol-5-yl)-3-methylbutanoyl)-N-((S)-1-(4-fluoro-6-(4-methylthiazol-5-yl)pyridin-3-yl)ethyl)-4-hydroxypyrrolidine-2-carboxamide] here?
**A.** Its DC50 is over 30 nM.

**Q.** How did the Dmax [1] turn out when `Cc1ncsc1-c1ccc([C@H](C)NC(=O)[C@@H]2C[C@@H](O)CN2C(=O)[C@H](c2cc(OCC[C@H]3CCN(C[C@H]4C[C@H](Oc5cc(N6C7CCC6CN(c6cc(-c8ccccc8O)nnc6N)C7)ccn5)C4)[C@@H](C)[C@H]3C)no2)C(C)C)cc1` (single isomer, unassigned) [compound 585] was run?
**A.** The Dmax was over 75%.

**Q.** What about the DC50 [2] of the same molecule?
**A.** Its DC50 is 2.5 to 10 nM.

**Q.** How did the DC50 [3] turn out when `Cc1ncsc1-c1ccc([C@H](C)NC(=O)[C@@H]2C[C@@H](O)CN2C(=O)[C@H](c2cc(OCC(=O)N3CCC(O[C@H]4C[C@H](Oc5cc(N6C7CCC6CN(c6cc(-c8ccccc8O)nnc6N)C7)ccn5)C4)CC3)no2)C(C)C)cn1` [compound 271, (2S,4R)-1-((2S)-2-(3-(2-(4-((1r,3S)-3-((4-(3-(3-amino-6-(2-hydroxyphenyl)pyridazin-4-yl)-3,8-diazabicyclo[3.2.1]octan-8-yl)pyridin-2-yl)oxy)cyclobutoxy)piperidin-1-yl)-2-oxoethoxy)isoxazol-5-yl)-3-methylbutanoyl)-4-hydroxy-N-((S)-1-(6-(4-methylthiazol-5-yl)pyridin-3-yl)ethyl)pyrrolidine-2-carboxamide] was run?
**A.** The DC50 was over 30 nM.

**Q.** Which DC50 [4] does the source give for `Cc1nccn1-c1ccc([C@@H](C)NC(=O)[C@H]2C[C@H](O)CN2C(=O)[C@@H](c2cc(N3CCN(CC4CCN(C[C@H]5C[C@H](Oc6cc(N7C8CCC7CN(c7cc(-c9ccccc9O)nnc7N)C8)ccn6)C5)CC4)CC3)no2)C(C)C)cc1` (racemic) [compound 447, rac-(2R,4S)-1-((2R)-2-(3-(4-((1-(((1r,3r)-3-((4-(3-(3-amino-6-(2-hydroxyphenyl)pyridazin-4-yl)-3,8-diazabicyclo[3.2.1]octan-8-yl)pyridin-2-yl)oxy)cyclobutyl)methyl)piperidin-4-yl)methyl)piperazin-1-yl)isoxazol-5-yl)-3-methylbutanoyl)-4-hydroxy-N-((R)-1-(4-(2-methyl-1H-imidazol-1-yl)phenyl)ethyl)pyrrolidine-2-carboxamide] here?
**A.** Its DC50 is over 30 nM.

**Q.** Which results are given for `Cc1ncsc1-c1ccc([C@H](C)NC(=O)[C@@H]2C[C@@H](O)CN2C(=O)[C@@H](c2cc(OCCN3CCC(O[C@H]4C[C@H](Oc5cc(N6C7CCC6CN(c6cc(-c8ccccc8O)nnc6N)C7)ccn5)C4)CC3)no2)C(C)C)nc1` [compound 368, (2S,4R)-1-((2R)-2-(3-(2-(4-((1r,3R)-3-((4-(3-(3-amino-6-(2-hydroxyphenyl)pyridazin-4-yl)-3,8-diazabicyclo[3.2.1]octan-8-yl)pyridin-2-yl)oxy)cyclobutoxy)piperidin-1-yl)ethoxy)isoxazol-5-yl)-3-methylbutanoyl)-4-hydroxy-N-((S)-1-(5-(4-methylthiazol-5-yl)pyridin-2-yl)ethyl)pyrrolidine-2-carboxamide]?
**A.** Dmax [5]: > 75%; DC50 [6]: < 2.5 nM

**Q.** Which results are given for `Cc1ncsc1-c1ccc([C@H](C)NC(=O)[C@@H]2C[C@@H](O)CN2C(=O)[C@H](c2cc(OCCC3(O)CCN(C[C@H]4C[C@H](Oc5cc(N6C7CC[C@@H]6CN(c6cc(-c8ccccc8O)nnc6N)C7)ccn5)C4)CC3)no2)C(C)C)cc1` [compound 435, (2S,4R)-1-((2S)-2-(3-(2-(1-(((1r,3S)-3-((4-(3-(3-amino-6-(2-hydroxyphenyl)pyridazin-4-yl)-3,8-diazabicyclo[3.2.1]octan-8-yl)pyridin-2-yl)oxy)cyclobutyl)methyl)-4-hydroxypiperidin-4-yl)ethoxy)isoxazol-5-yl)-3-methylbutanoyl)-4-hydroxy-N-((S)-1-(4-(4-methylthiazol-5-yl)phenyl)ethyl)pyrrolidine-2-carboxamide]?
**A.** BRM Dmax (%) (% degraded, when tested at the top concentration of between 0.3 and 10 μM): A (A > 75); DC50 [4]: < 2.5 nM

**Q.** For `Cc1ncoc1-c1ccc([C@H](C)NC(=O)[C@@H]2C[C@@H](O)CN2C(=O)[C@@H](c2cc(OCCN3CCN(CCOc4cc(N5C6CCC5CN(c5cc(-c7ccccc7O)nnc5N)C6)ccn4)CC3)no2)C(C)C)cn1` [compound 117, (2S,4R)-1-((2R)-2-(3-(2-(4-(2-((4-(3-(3-amino-6-(2-hydroxyphenyl)pyridazin-4-yl)-3,8-diazabicyclo[3.2.1]octan-8-yl)pyridin-2-yl)oxy)ethyl)piperazin-1-yl)ethoxy)isoxazol-5-yl)-3-methylbutanoyl)-4-hydroxy-N-((S)-1-(6-(4-methyloxazol-5-yl)pyridin-3-yl)ethyl)pyrrolidine-2-carboxamide], which DC50 [3] is on record?
**A.** The DC50 was 2.5 to 10 nM.

**Q.** What about the Dmax (BRM degradation, SW1573 cells, when tested at the top concentration of between 0.3 and 10 μM, read-out: Dmax (%) (% degraded)) of the same molecule?
**A.** The Dmax was over 75%.

**Q.** `Cc1ncsc1-c1ccc([C@H](C)NC(=O)[C@@H]2C[C@@H](O)CN2C(=O)[C@@H](c2cc(N3CCC(O[C@H]4C[C@H](Oc5cc(N6C7CCC6CN(c6cc(-c8ccccc8O)nnc6N)C7)ccn5)C4)CC3)no2)C(C)C)cc1` [compound 404, (2S,4R)-1-((2R)-2-(3-(4-((1r,3R)-3-((4-(3-(3-amino-6-(2-hydroxyphenyl)pyridazin-4-yl)-3,8-diazabicyclo[3.2.1]octan-8-yl)pyridin-2-yl)oxy)cyclobutoxy)piperidin-1-yl)isoxazol-5-yl)-3-methylbutanoyl)-4-hydroxy-N-((S)-1-(4-(4-methylthiazol-5-yl)phenyl)ethyl)pyrrolidine-2-carboxamide] was tested. Which Dmax [5] did it give?
**A.** Its Dmax is over 75%.

**Q.** What about the DC50 [4] of the same molecule?
**A.** The DC50 was under 2.5 nM.

**Q.** Which DC50 [6] does the source give for `Cc1ncsc1-c1ccc([C@H](C)NC(=O)[C@@H]2C[C@@H](O)CN2C(=O)[C@H](c2cc(OCCN3CCC(O[C@H]4C[C@H](OCCN5CCOC6(CCN(c7cc(-c8ccccc8O)nnc7N)CC6)C5)C4)CC3)no2)C(C)C)cc1` [compound 358, (2S,4R)-1-((S)-2-(3-(2-(4-((1r,3S)-3-(2-(9-(3-amino-6-(2-hydroxyphenyl)pyridazin-4-yl)-1-oxa-4,9-diazaspiro[5.5]undecan-4-yl)ethoxy)cyclobutoxy)piperidin-1-yl)ethoxy)isoxazol-5-yl)-3-methylbutanoyl)-4-hydroxy-N-((S)-1-(4-(4-methylthiazol-5-yl)phenyl)ethyl)pyrrolidine-2-carboxamide] here?
**A.** The DC50 was over 30 nM.

**Q.** How did the Dmax [1] turn out when `COc1nc(-c2scnc2C)c(F)cc1[C@H](C)NC(=O)[C@@H]1C[C@@H](O)CN1C(=O)[C@@H](c1cc(OCCN2CCC(O[C@H]3C[C@H](Oc4cc(N5C6CCC5CN(c5cc(-c7ccccc7O)nnc5N)C6)ccn4)C3)CC2)no1)C(C)C` [compound 562, (2S,4R)-1-((2R)-2-(3-(2-(4-((1r,3R)-3-((4-(3-(3-amino-6-(2-hydroxyphenyl)pyridazin-4-yl)-3,8-diazabicyclo[3.2.1]octan-8-yl)pyridin-2-yl)oxy)cyclobutoxy)piperidin-1-yl)ethoxy)isoxazol-5-yl)-3-methylbutanoyl)-N-((S)-1-(5-fluoro-2-methoxy-6-(4-methylthiazol-5-yl)pyridin-3-yl)ethyl)-4-hydroxypyrrolidine-2-carboxamide] was run?
**A.** Its Dmax is over 75%.

**Q.** What about the DC50 [2] of the same molecule?
**A.** Its DC50 is under 2.5 nM.

**Q.** What does the source list for `Cc1ncsc1-c1ccc([C@H](C)NC(=O)[C@@H]2C[C@@H](OP(=O)(O)O)CN2C(=O)[C@@H](c2cc(OCCN3CCC(O[C@H]4C[C@H](Oc5cc(N6C7CCC6CN(c6cc(-c8ccccc8OP(=O)(O)O)nnc6N)C7)ccn5)C4)CC3)no2)C(C)C)cc1` [compound 517, (3R,5S)-1-((2R)-2-(3-(2-(4-((1r,3R)-3-((4-(3-(3-amino-6-(2-(phosphonooxy)phenyl)pyridazin-4-yl)-3,8-diazabicyclo[3.2.1]octan-8-yl)pyridin-2-yl)oxy)cyclobutoxy)piperidin-1-yl)ethoxy)isoxazol-5-yl)-3-methylbutanoyl)-5-(((S)-1-(4-(4-methylthiazol-5-yl)phenyl)ethyl)carbamoyl)pyrrolidin-3-yl dihydrogen phosphate]?
**A.** DC50 (BRM degradation, read-out: BRM DC50): < 2.5 nM; Dmax [5]: > 75%

**Q.** For `Cc1ncsc1-c1ccc([C@H](C)NC(=O)[C@@H]2C[C@@H](O)CN2C(=O)[C@@H](c2cc(OCCC3CCN(C(=O)[C@H]4C[C@H](Oc5cc(N6C7CCC6CN(c6cc(-c8ccccc8O)nnc6N)C7)ccn5)C4)CC3)no2)C(C)C)cn1` [compound 261, (2S,4R)-1-((2R)-2-(3-(2-(1-((1r,3R)-3-((4-(3-(3-amino-6-(2-hydroxyphenyl)pyridazin-4-yl)-3,8-diazabicyclo[3.2.1]octan-8-yl)pyridin-2-yl)oxy)cyclobutane-1-carbonyl)piperidin-4-yl)ethoxy)isoxazol-5-yl)-3-methylbutanoyl)-4-hydroxy-N-((S)-1-(6-(4-methylthiazol-5-yl)pyridin-3-yl)ethyl)pyrrolidine-2-carboxamide], which DC50 [3] is on record?
**A.** Its DC50 is under 2.5 nM.

**Q.** What about the Dmax (BRM degradation, SW1573 cells, tested at the top concentration of between 0.3 and 10 μM, read-out: Dmax (%) (% degraded)) of the same molecule?
**A.** Its Dmax is over 75%.
